Data set [1] addresses T1, serotonin S3 (5-HT3) receptor (Rattus norvegicus, UniProt P35563).
T1 sequence (P35563 24-483): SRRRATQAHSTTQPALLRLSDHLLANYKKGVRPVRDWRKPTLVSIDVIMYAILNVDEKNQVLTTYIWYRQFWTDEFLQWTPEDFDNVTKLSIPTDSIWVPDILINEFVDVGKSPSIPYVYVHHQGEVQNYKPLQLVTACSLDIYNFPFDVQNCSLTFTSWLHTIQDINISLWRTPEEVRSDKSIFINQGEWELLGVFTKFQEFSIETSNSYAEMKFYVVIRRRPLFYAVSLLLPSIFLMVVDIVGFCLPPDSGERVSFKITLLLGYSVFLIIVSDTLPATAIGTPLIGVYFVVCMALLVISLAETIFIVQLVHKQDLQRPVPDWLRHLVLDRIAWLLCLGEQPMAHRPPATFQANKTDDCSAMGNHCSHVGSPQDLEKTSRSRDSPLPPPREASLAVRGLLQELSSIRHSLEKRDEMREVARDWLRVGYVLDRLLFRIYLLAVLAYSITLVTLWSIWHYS
The data set can be described thus: Serotonin S3 receptor-binding (in vitro receptor binding assay, [3H] quipazine). On the set-up: Crude synaptosome fractions prepared from rat brain were used as receptor samples; from tissue; host or cells: rat brain, crude synaptosome fraction.
Protocol: (§1) Dopamine D2 receptor-binding and serotonin S3 receptor-binding activities (in vitro receptor binding assay)
(§2) Crude synaptosome fractions prepared from rat brain were used as receptor samples, and [^3 H] spiperone (D2) and [^3 H] quipazine (S3), as labelled ligands. A buffer solution containing each of the receptor sample and labelled ligand (final volume: 1 ml) was incubated for a prescribed period in the presence of one of the test compounds at various concentration levels, and thereafter the radioactive ligand bound to the receptor was isolated onto a filter using a cell-harvester (Brandel Co.) and radioactivity on each filter was measured with a liquid scintillation counter to determine the total amount bound to the receptor. Specifically bound amount was calculated by subtracting non-specifically bound amount from the total amount bound, said non-specifically bound amount being that bound under the presence of an excessive amount of non-labelled ligand [spiperone (D2) and [^3 H] quipazine (S3)] which was concurrently measured. The concentration level of the test compound at which specific binding of labelled ligand was inhibited by 50% (IC50 value) was calculated by probit analysis.

Data set [2] concerns apomorphine-induced emesis. The data set can be described thus: Inhibitory effect on apomorphine-induced emesis in dog. In kind it is in vivo, Beagle dogs. The settings on record: Canis lupus familiaris, read-out: ED50 apomorphine-induced emesis, dog. The protocol: Inhibitory Effect on Apomorphine-induced Emesis
Three to four Beagle dogs (body weight: 8-15 kg) per group were used to examine the inhibitory effect of the test compounds on apomorphine-inducedemesis. This test has been commonly conducted as a method for detecting dopamine blocker. Each of the test animals was orally administered with a prescribed dose of a test compound as dissolved or suspended in 0.5% tragacanth solution, and two hours thereafter, was administered with apomorphine hydrochloride (0.3 mg/kg) by subcutaneous injection at the back.

For data set [3], the system named is cisplatin-induced emesis. The data set can be described thus: Effect on cisplatin-induced emesis in ferrets. The class given is in vivo, Male ferrets. As to conditions: Mustela putorius, 0.5 h, read-out: ED50 cisplatin-induced emesis, ferret. The protocol:
Effect on Cisplatin-induced Emesis in Ferrets
Male ferrets (Marshall Lab., U.S.A.) weighing approximately 1 kg were used. For intravenous injection, a cannule was implanted in the cervical vein under pentobarbital anethesia, 3-4 days in advance of the experiment. To each test group each a prescribed dose of a test compound as dissolved or suspended in 0.5% tragacanth solution was orally administered, and 30 minutes thereafter, cisplatin (Sigma) 10 mg/kg (physiological salt solution, 3 ml/kg) was administered intravenously through the cannule.

Data set [4] is described as follows: Inhibitory effect on exploratory activity. On the set-up: species or system Male mice (Std-ddy strain). As to conditions: mouse, in vivo; mice, oral, 2 hours after administration, counts for 3 minutes; read-out: ED50 inhibition of exploratory activity. The method, then: Inhibitory Effect on Exploratory Activity
Male mice (5 per group, Std-ddy strain, weighing 20-25 g) were used as the test animals, each of which was orally administered with a test compound which was dissolved or suspended in 0.5% tragacanth solution and after 2 hours from the administration put in a test cage (23×35×30 cm) on Animex activity meter (Farad Co.). Exploratory activity of each mouse was counted for the following 3 minutes. The mean counts of exploratory activities (count/3 min.) per group of the tested mice was compared with that of the control group to calculate the inhibition rate, and the effective dose (ED50 value) of each test compound for 50% inhibition was determined by probit analysis.

The target in data set [5] is T1, serotonin S3 (5-HT3) receptor. Nature of the data set: Inhibitory effect on von Bezold-Jarisch reflex (anti-serotonin S3 activity). The class given is in vivo, Male Wister rats. On the set-up: Male Wister rats weighing 250-350 g were anesthetized with urethane; from tissue; host or cells: whole animal in vivo (male Wistar rats). As to conditions: 0.05 h, test compound intravenous 3 minutes before 2-methylserotonin 10-30 μg/kg i.v., read-out: ED50 von Bezold-Jarisch Reflex Inhibition. The method, then: Inhibitory Effect on von Bezold-Jarisch Reflex (Anti-serotonin S3 Activity)
This test was carried out following the method of Fozard, et al. [cf. Arch. […] Male Wister rats weighing 250-350 g were anesthetized with urethane (1.5 g/kg, intraperitoneal) and set on their backs. Electrocardiogram (lead II) and a heart rate on the animals were recorded on inkwriting oscillograph via a biophysical amplifier and pulse rate tachometer, respectively. […] A fixed amount of 2-methylserotonin was repeatedly administered at 15-minute intervals until stable responses were obtained, and then a test compound was administered intravenously, 3 minutes before administration of 2-methylserotonin.

Data set [6] concerns cisplatin-induced emesis. Nature of the data set: Effect on cisplatin-induced emesis in dog. In kind it is in vivo, Beagle dogs. As to conditions: Canis lupus familiaris, 0.5 h, read-out: ED50 cisplatin-induced emesis, dog. The method, then:
Effect on Cisplatin-induced Emesis in Dog
Four to five Beagle dogs (body weight: 10-12 kg) per group were used to examine the inhibitory effect of the test compounds on cisplatin-induced emesis. To each test group each a prescribed dose of a test compound as dissolved or suspended in 0.5% tragacanth solution was orally administered, and 30 minutes thereafter, cisplatin (Sigma) 3 mg/kg (physiological salt solution, 3 ml/kg) was intravenously administered.

For data set [7], the target named is Dopamine D2 receptor (Rattus norvegicus, UniProt P61169). Nature of the data set: biochemical.
Sequence of Dopamine D2 receptor (P61169 whole entry): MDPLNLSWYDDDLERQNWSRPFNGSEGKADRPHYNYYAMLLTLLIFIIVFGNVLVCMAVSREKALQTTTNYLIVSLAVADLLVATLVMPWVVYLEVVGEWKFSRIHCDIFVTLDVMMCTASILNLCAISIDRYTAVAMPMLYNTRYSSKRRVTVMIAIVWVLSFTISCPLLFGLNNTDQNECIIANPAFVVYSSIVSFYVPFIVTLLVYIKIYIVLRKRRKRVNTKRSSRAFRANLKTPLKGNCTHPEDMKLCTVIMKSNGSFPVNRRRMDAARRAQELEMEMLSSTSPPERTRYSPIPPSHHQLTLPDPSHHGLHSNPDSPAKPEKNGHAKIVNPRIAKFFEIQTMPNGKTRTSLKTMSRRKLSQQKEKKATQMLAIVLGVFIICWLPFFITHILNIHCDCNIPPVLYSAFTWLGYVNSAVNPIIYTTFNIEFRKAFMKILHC
Protocol: as §1, §2
Setting [8] is: dog, oral, 2 hours before apomorphine hydrochloride 0.3 mg/kg s.c., emetic episodes within 1 hour.
[9] abbreviates: ferret, oral, 30 minutes before cisplatin 10 mg/kg i.v., emetic episodes within 3 hours.
The mark [10] stands for this setting: dog, oral, 30 minutes before cisplatin 3 mg/kg i.v., emetic episodes within 5 hours.

The structures appear in SMILES notation. Structures can show the parent of a compound that is named as a salt. Where two headings read alike, the source gives them in different places.

In data set [1], `CCN(CC)CCNC(=O)c1cc(Cl)c(N)cc1OC.Cl.Cl.O` [metoclopramide hydrochloride, 4-amino-5-chloro-N-[2-(diethylamino)ethyl]-2-methoxybenzamide dihydrochloride monohydrate] displayed an IC50 of 880 nM. In addition, the ED50 in data set [2] (setting [8]) amounted to 0.45 mg/kg; in data set [3] (setting [9]), 0.98 mg/kg; in data set [5] it was 0.181 mg/kg; in data set [6] (setting [10]) it was 3.96 mg/kg. Also, the ED50 at 2 h in data set [4] worked out at 22.4 mg/kg.

In the case of `CCN1CCN(C)C[C@@H](NC(=O)c2cc(Br)c(NC)nc2OC)C1.O=C(O)/C=C/C(=O)O.O=C(O)/C=C/C(=O)O` [Example 1, (R)-5-bromo-N-(1-ethyl-4-methylhexahydro-1H-1,4-diazepin-6-yl)-2-methoxy-6-methylamino-3-pyridinecarboxamide Difumarate], the IC50 in data set [1] (crude synaptosome fractions from rat brain, [3H] quipazine (S3), read-out: IC50 S3) is 1 nM; in data set [7], 11.7 nM. The ED50 in data set [2] (setting [8]) was determined as 0.19 mg/kg; in data set [3] (setting [9]), 0.03 mg/kg; in data set [5], 0.0019 mg/kg; in data set [6] (setting [10]) it was 0.29 mg/kg. Also, the ED50 at 2 h in data set [4] worked out at 48.5 mg/kg.

Turning to `CN1C2CCCC1CC(NC(=O)c1nn(C)c3ccccc13)C2` (stereo not drawn) [granisetron hydrochloride, endo-1-methyl-N-(9-methyl-9-azobicyclo-[3.3.1]non-3-yl)-1H-indazole-3-carboxamide hydrochloride], the IC50 in data set [7] was over 100000 nM. In data set [5], the ED50 came out at 0.00026 mg/kg.

Regarding `O=c1[nH]c2ccccc2n1CCCN1CCC(n2c(=O)[nH]c3cc(Cl)ccc32)CC1` [domperidone, 5-chloro-1-[1-[3-(2,3-dihydro-2-oxo-1H-benzimidazol-1-yl)propyl]-4-piperidinyl]-1,3-dihydro-2H-benzimidazol-2-one], the ED50 is 0.02 mg/kg in data set [2] (po, 2 h); over 10 mg/kg in data set [3] (po); over 3 mg/kg in data set [6] (po).

As for `Cc1nccn1CC1CCc2c(c3ccccc3n2C)C1=O.Cl` (centres unmarked) [ondansetron hydrochloride, 1,2,3,9-tetrahydro-9-methyl-3-[(2-methyl-1H-imidazol-1-yl)methyl]-4H-carbazol-4-one hydrochloride], the ED50 in data set [2] (setting [8]) is over 10 mg/kg; in data set [3] (setting [9]), 0.1 mg/kg; in data set [5], 0.0011 mg/kg; in data set [6] (setting [10]) it was 0.16 mg/kg. In data set [7], this molecule yielded an IC50 of over 100000 nM.

The record behind these values is patent US5945415A, “(R)-5-bromo-N-(1-ethyl-4-methylhexahydr o-1H-1,4-diazepin-6-yl)-2-methoxy-6-methylamino-3-pyridinecarboxamide, process for producing the same and medicinal composition containing the same” (priority 1995, dated 1999).
